The text below walks through data of article PMC7047604 (Journal of medicinal chemistry, 2020).

Entries after “also recorded” stand apart in the source; their conditions may differ. Some results are limits rather than exact numbers.

The target of data set [1] is T1, human DOR (Homo sapiens, UniProt P41143). The data set is classed as biochemical.
The next data set relates to male C57BL/6 mice. Conditions: mouse, in vivo.
In another data set the target is human MOR (Homo sapiens, UniProt P35372). Description: biochemical. The data set is classed as biochemical. The note with it: for Emax at 10 µM: read-out: Efficacy (% Stimulation) MOR.
Chain of human MOR (P35372 whole entry): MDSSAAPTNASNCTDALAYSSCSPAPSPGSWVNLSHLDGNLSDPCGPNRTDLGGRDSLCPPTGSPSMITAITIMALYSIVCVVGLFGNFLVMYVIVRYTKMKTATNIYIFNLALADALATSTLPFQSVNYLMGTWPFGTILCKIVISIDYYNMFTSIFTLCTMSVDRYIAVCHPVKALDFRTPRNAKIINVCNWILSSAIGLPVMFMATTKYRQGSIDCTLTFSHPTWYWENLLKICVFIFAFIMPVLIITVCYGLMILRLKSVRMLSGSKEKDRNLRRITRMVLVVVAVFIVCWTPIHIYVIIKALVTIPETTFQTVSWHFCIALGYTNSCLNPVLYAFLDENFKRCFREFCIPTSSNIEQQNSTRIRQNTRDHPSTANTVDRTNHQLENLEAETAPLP
Data set [2] concerns the target T2, human KOR (Homo sapiens, UniProt P41145). The data set is classed as biochemical.
The target in data set [3] is T1, human DOR. The data set is classed as binding.
For data set [4], the target named is T2, human KOR. The data set is classed as binding.
A short description of the next data set: in vitro. Conditions: mouse, microsomes, pH 7.4, metabolic half-life in MLM, abstract statement.

T2 sequence (P41145 whole entry): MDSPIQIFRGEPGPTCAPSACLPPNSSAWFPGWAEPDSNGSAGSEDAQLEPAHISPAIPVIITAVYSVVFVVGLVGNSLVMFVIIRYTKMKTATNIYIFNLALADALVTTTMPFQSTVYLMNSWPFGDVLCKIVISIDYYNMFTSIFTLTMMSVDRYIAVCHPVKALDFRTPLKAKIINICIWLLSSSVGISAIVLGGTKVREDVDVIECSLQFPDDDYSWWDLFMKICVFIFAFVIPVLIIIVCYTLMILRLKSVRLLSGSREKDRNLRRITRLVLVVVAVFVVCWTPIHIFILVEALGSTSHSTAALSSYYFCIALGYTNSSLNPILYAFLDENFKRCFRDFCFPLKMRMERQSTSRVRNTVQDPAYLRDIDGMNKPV
T1 sequence (P41143 whole entry): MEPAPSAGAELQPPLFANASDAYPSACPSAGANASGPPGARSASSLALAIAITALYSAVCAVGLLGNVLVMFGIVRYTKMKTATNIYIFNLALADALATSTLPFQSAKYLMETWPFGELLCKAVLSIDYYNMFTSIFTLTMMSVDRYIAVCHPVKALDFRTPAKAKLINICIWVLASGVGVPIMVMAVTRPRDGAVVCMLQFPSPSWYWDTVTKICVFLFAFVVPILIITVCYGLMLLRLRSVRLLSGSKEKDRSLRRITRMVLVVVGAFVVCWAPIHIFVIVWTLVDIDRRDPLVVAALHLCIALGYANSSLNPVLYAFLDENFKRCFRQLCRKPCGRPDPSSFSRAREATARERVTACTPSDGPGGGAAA

As for `CCOc1ccc(CN2Cc3ccccc3C2)cc1CNC(=O)[C@@H](N)Cc1c(C)cc(O)cc1C.O=C(O)C(F)(F)F` [Compound 17, (S)-1-((2-ethoxy-5-(isoindolin-2-ylmethyl)benzyl)amino)-3-(4-hydroxy-2,6-dimethylphenyl)-1-oxopropan-2-aminium trifluoroacetate], at human DOR [1], the “Efficacy (% Stimulation) DOR” value worked out at 35.7±2.8% and the “partial DOR agonist, potency in words” value is given as “moderate”. Moreover, the “antinociceptive activity in AASA at 1 mg/kg” value in the data set with male C57BL/6 mice is recorded as “active antinociceptive agents”. At human MOR, the “MOR agonist character in words” value is reported as “full agonists” and the Emax at 10 µM was determined as 98.1 ± 6.7%. Moreover, on human KOR [2], the “Efficacy (% Stimulation) KOR” value was “DNS” and the “Potency, EC50 KOR” value was “DNS”.
For `CCOc1ccc(CN2CCc3ccccc3C2)cc1CNC(=O)[C@@H](N)Cc1c(C)cc(O)cc1C.O=C(O)C(F)(F)F` [Compound 18, (S)-1-((5-((3,4-dihydroisoquinolin-2(1H)-yl)methyl)-2-ethoxybenzyl)amino)-3-(4-hydroxy-2,6-dimethylphenyl)-1-oxopropan-2-aminium trifluoroacetate], at human DOR [1], the “Efficacy (% Stimulation) DOR” value was “did not stimulate DOR and DNS”; the “Potency, EC50 DOR” value is recorded as “DNS”. Besides, on human DOR [3], the “Selectivity MOR:DOR:KOR, DOR term (Ki DOR / Ki MOR)” value was 1:10:192. On human MOR, the “MOR agonist character in words” value is “full agonists” and the Emax at 10 µM came to 94.6 ± 3.9%. Also, at human KOR [2], the “Efficacy (% Stimulation) KOR” value is given as “DNS” and the “Potency, EC50 KOR” value is on record as “DNS”.
Turning to `CCOc1ccc(CNCc2ccccc2)cc1CNC(=O)[C@@H](N)Cc1c(C)cc(O)cc1C.O=C(O)C(F)(F)F` [Compound 19, (S)-1-((5-((benzylamino)methyl)-2-ethoxybenzyl)amino)-3-(4-hydroxy-2,6-dimethylphenyl)-1-oxopropan-2-aminium trifluoroacetate], at human DOR [1], the “Efficacy (% Stimulation) DOR” value worked out at 26.1±1.7% and the “partial DOR agonist, potency in words” value is “high”. In addition, the Emax at 10 µM at human MOR worked out at 77.9 ± 3%. The “Efficacy (% Stimulation) KOR” value at human KOR [2] was more than 20%. In addition, the “KOR binding affinity in words” value on human KOR [4] was “low double-digit”.
Take `CCOc1ccc(CN2CCOCC2)cc1CNC(=O)[C@@H](N)Cc1c(C)cc(O)cc1C.O=C(O)C(F)(F)F` [Compound 16, (S)-1-((2-ethoxy-5-(morpholinomethyl)benzyl)amino)-3-(4-hydroxy-2,6-dimethylphenyl)-1-oxopropan-2-aminium trifluoroacetate]: at human DOR [1], the “Efficacy (% Stimulation) DOR” value is “did not stimulate DOR and DNS”; the “Potency, EC50 DOR” value is reported as “DNS”. Moreover, the “Selectivity MOR:DOR:KOR, DOR term (Ki DOR / Ki MOR)” value at human DOR [3] is recorded as 1:2.0:>49. For the same molecule, on human KOR [2], the “Efficacy (% Stimulation) KOR” value is “DNS” and the “Potency, EC50 KOR” value is “DNS”. In addition, the “Selectivity MOR:DOR:KOR, KOR term (Ki KOR / Ki MOR)” value at human KOR [4] is on record as 1:2.0:>49.
Turning to `CCOc1ccc(CN2CCCCC2)cc1CNC(=O)[C@@H](N)Cc1c(C)cc(O)cc1C.O=C(O)C(F)(F)F` [Compound 14, (S)-1-((2-ethoxy-5-(piperidin-1-ylmethyl)benzyl)amino)-3-(4-hydroxy-2,6-dimethylphenyl)-1-oxopropan-2-aminium trifluoroacetate], the half-life at 1 μM in “in vitro” is more than 1 h. Moreover, the “antinociceptive activity in AASA at 1 mg/kg” value with male C57BL/6 mice is “active antinociceptive agents”. The “Selectivity MOR:DOR:KOR, DOR term (Ki DOR / Ki MOR)” value on human DOR [3] is reported as 1:3.1:20. At human KOR [2], the “Efficacy (% Stimulation) KOR” value is given as “DNS” and the “Potency, EC50 KOR” value is recorded as “DNS”. Also, on human KOR [4], the “Selectivity MOR:DOR:KOR, KOR term (Ki KOR / Ki MOR)” value is on record as 1:3.1:20.
In the case of `CCOc1ccc(C(=O)N2Cc3ccccc3C2)cc1CNC(=O)[C@@H](N)Cc1c(C)cc(O)cc1C.O=C(O)C(F)(F)F` [Compound 22, (S)-1-((2-ethoxy-5-(isoindoline-2-carbonyl)benzyl)amino)-3-(4-hydroxy-2,6-dimethylphenyl)-1-oxopropan-2-aminium trifluoroacetate], at human DOR [1], the “Efficacy (% Stimulation) DOR” value is “did not stimulate DOR and DNS”; the “Potency, EC50 DOR” value was “DNS”. Also, at human DOR [3], the “Selectivity MOR:DOR:KOR, DOR term (Ki DOR / Ki MOR)” value is 1:20:900. In addition, the Emax at 10 µM at human MOR stood at 27.8 ± 0.7%. In addition, on human KOR [2], the “Efficacy (% Stimulation) KOR” value is recorded as “DNS” and the “Potency, EC50 KOR” value is given as “DNS”.
Turning to `CCOc1ccc(C(=O)N2CCCC2)cc1CNC(=O)[C@@H](N)Cc1c(C)cc(O)cc1C.O=C(O)C(F)(F)F` [Compound 21, (S)-1-((2-ethoxy-5-(pyrrolidine-1-carbonyl)benzyl)amino)-3-(4-hydroxy-2,6-dimethylphenyl)-1-oxopropan-2-aminium trifluoroacetate], on human DOR [1], the “Efficacy (% Stimulation) DOR” value is “did not stimulate DOR and DNS”; the “Potency, EC50 DOR” value is “DNS”. At human DOR [3], the “Selectivity MOR:DOR:KOR, DOR term (Ki DOR / Ki MOR)” value is 1:2.2:>22. In addition, at human MOR, the “Efficacy (% Stimulation) MOR” value is on record as “DNS” and the “Potency, EC50 MOR” value was “DNS”. At human KOR [2], the “Efficacy (% Stimulation) KOR” value is given as “DNS” and the “Potency, EC50 KOR” value is on record as “DNS”. For the same molecule, the “Selectivity MOR:DOR:KOR, KOR term (Ki KOR / Ki MOR)” value on human KOR [4] is given as 1:2.2:>22.
For the molecule `CCOc1ccc(CN(C)Cc2ccccc2)cc1CNC(=O)[C@@H](N)Cc1c(C)cc(O)cc1C.O=C(O)C(F)(F)F` [Compound 20, (S)-1-((5-((benzyl(methyl)amino)methyl)-2-ethoxybenzyl)amino)-3-(4-hydroxy-2,6-dimethylphenyl)-1-oxopropan-2-aminium trifluoroacetate], on human DOR [1], the “Efficacy (% Stimulation) DOR” value is “did not stimulate DOR and DNS”; the “Potency, EC50 DOR” value is “DNS”. Further, the “antinociceptive activity in AASA (overall)” value with male C57BL/6 mice was “inactive; also recorded: lacked antinociceptive activity”. Besides, the “Selectivity MOR:DOR:KOR, DOR term (Ki DOR / Ki MOR)” value on human DOR [3] is reported as 1:4.0:26. On human MOR, the Emax at 10 µM amounted to 72.2 ± 6.2%. On human KOR [2], the “Efficacy (% Stimulation) KOR” value was “DNS” and the “Potency, EC50 KOR” value is listed as “DNS”. In addition, on human KOR [4], the “KOR binding affinity in words” value is “low double-digit” and the “Selectivity MOR:DOR:KOR, KOR term (Ki KOR / Ki MOR)” value was 1:4.0:26.
As to `CCOc1ccc(CN2CC3CC3C2)cc1CNC(=O)[C@@H](N)Cc1c(C)cc(O)cc1C.O=C(O)C(F)(F)F` (stereo partly drawn) [Compound 15, (2S)-1-((5-((3-azabicyclo[3.1.0]hexan-3-yl)methyl)-2-ethoxybenzyl)amino)-3-(4-hydroxy-2,6-dimethylphenyl)-1-oxopropan-2-aminium trifluoroacetate], on human DOR [3], the “Selectivity MOR:DOR:KOR, DOR term (Ki DOR / Ki MOR)” value is reported as 1:2.6:13. For the same molecule, the “Selectivity MOR:DOR:KOR, KOR term (Ki KOR / Ki MOR)” value at human KOR [4] is 1:2.6:13.
Consider `CCOc1ccc(CN2CCCC2)cc1CNC(=O)[C@@H](N)Cc1c(C)cc(O)cc1C.O=C(O)C(F)(F)F` [Compound 13, (S)-1-((2-ethoxy-5-(pyrrolidin-1-ylmethyl)benzyl)amino)-3-(4-hydroxy-2,6-dimethylphenyl)-1-oxopropan-2-aminium trifluoroacetate], for which the “antinociceptive activity in AASA (overall)” value in the data set on male C57BL/6 mice was “inactive; also recorded: lacked antinociceptive activity”. At human DOR [3], the “Selectivity MOR:DOR:KOR, DOR term (Ki DOR / Ki MOR)” value is 1:3.0:29. The “Selectivity MOR:DOR:KOR, KOR term (Ki KOR / Ki MOR)” value at human KOR [4] was 1:3.0:29.

Broadly, the half-life is how long it takes for the measured level to halve. A high value points to slow loss.
